In patent publication US20260184697A1, “EZH1/2 INHIBITOR, PREPARATION THEREOF, AND USE THEREOF IN ANTI-TUMOR THERAPY” (JIANGSU TASLY DIYI PHARMACEUTICAL CO., LTD., priority 2022, published 2026) one finds IC50 data, which are given here for 37 compounds.

A word on the IC50: it is the concentration that inhibits the measured activity by half.

The target in experiment [1] is T1, EZH1/SUZ/EED (Homo sapiens, UniProt O75530+Q15022+Q92800).
T1 construct: purchased BPS 51006
As to the kind of experiment: Inhibitory effect on EZH1 by the MTase-Glo method (Test Example 1). The format is biochemical. As to conditions: EZH1/SUZ/EED 25 nM, H3 peptide 10 μM, SAM 3 μM, 30° C. 3 h, read-out: Test Example 1 WT EZH1 IC50. As for the experimental part:
(§1) The compound was dissolved in DMSO, and the compound was serially diluted using ECHO665 and transferred to a 384-well reaction plate (Corning, 3824). A sample containing only DMSO was added as a positive control (maximum signal control) and a negative control (minimum signal control), while ensuring that the final DMSO content in each reaction well was 0.5%. The protein was configured in reaction buffer (50 mM Bicine, 0.01% Triton X-100, 1 mM DTT, 0.01% BSA, pH 7.6), such that the final reaction concentrations of EZH2/SUZ/EED (BPS, 51003) protein solution and EZH1/SUZ/EED (BPS, 51006) were 6.25 nM and 25 nM, respectively. The negative control (minimum signal control) used an equal amount of buffer instead of protein solution. The prepared protein solution was added to the 384-well reaction plate and pre-incubated at room temperature for 15 minutes. The mixture of the substrate H3 peptide fragment (custom-synthesized by GenScript, biotinylated Histone H3(21-44) peptide ([…]-GG-K(Biotin)-OH)) prepared in the reaction buffer and SAM (Promega, V7601) was added into the 384-well plate, such that the final reaction concentration of H3 peptide fragment was 10 μM, and the final concentration of SAM was 3 μM. The mixture was centrifuged at 1000 rpm for 1 min. The 384-well reaction plate was placed in a constant temperature shaker and incubate at 30° C. for 3 h at a speed of 300 rpm. Then the detection reagent was added according to the experimental process of the kit MTase-Glo (Promega, V7601) and incubated.
(§2) After incubation, read with BMG PHERAStar. The luminescence signals obtained by positive control (maximum signal control) and negative control (minimum signal control) were normalized to obtain the inhibition rate of different concentrations of compounds. Then, the IC50 of the compound on the enzyme activity inhibition was calculated by GraphPad Prism 6 with log(inhibitor) vs. response-Variable slope model fitting. The fitting equation is: Y=Bottom+(Top−Bottom)/(1+10^((Log IC50−X)*HillSlope)), wherein Y represents the known percentage remaining enzyme activity, and X represents the known activity after Log compound concentration.

Experiment [2] concerns the target T2, EZH2/SUZ/EED (Homo sapiens, UniProt O75530+Q15022+Q15910).
T2 construct: purchased BPS 51003
Description: Inhibitory effect on EZH2 by the MTase-Glo method (Test Example 1). The format is biochemical. The note with it: EZH2/SUZ/EED 6.25 nM, H3 peptide 10 μM, SAM 3 μM, 30° C. 3 h, read-out: Test Example 1 WT EZH2 IC50. The method, then: as §1, §2

T2 sequence (Q15910 2-746 limits assumed): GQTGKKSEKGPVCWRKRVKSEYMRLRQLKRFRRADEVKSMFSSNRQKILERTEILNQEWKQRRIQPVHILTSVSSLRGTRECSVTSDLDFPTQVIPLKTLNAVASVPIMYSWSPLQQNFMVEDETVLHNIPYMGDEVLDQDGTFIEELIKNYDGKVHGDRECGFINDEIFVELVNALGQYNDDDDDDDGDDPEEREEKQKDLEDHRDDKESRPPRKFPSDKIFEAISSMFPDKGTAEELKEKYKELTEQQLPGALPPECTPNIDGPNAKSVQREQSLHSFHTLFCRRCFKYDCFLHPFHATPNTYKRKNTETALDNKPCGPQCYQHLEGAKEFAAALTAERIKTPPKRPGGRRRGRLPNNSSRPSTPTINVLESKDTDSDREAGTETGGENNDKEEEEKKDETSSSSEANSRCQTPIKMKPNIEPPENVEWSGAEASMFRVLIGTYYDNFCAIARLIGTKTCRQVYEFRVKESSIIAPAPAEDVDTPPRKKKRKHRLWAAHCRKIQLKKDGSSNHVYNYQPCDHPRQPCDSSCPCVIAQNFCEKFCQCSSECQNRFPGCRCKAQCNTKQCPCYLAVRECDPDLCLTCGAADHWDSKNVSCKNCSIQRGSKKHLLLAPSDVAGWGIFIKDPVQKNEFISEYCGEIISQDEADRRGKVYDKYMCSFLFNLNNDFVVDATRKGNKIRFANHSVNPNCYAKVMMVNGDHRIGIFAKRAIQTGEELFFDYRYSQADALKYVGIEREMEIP
T2 sequence (Q15022 2-739 partner limits assumed): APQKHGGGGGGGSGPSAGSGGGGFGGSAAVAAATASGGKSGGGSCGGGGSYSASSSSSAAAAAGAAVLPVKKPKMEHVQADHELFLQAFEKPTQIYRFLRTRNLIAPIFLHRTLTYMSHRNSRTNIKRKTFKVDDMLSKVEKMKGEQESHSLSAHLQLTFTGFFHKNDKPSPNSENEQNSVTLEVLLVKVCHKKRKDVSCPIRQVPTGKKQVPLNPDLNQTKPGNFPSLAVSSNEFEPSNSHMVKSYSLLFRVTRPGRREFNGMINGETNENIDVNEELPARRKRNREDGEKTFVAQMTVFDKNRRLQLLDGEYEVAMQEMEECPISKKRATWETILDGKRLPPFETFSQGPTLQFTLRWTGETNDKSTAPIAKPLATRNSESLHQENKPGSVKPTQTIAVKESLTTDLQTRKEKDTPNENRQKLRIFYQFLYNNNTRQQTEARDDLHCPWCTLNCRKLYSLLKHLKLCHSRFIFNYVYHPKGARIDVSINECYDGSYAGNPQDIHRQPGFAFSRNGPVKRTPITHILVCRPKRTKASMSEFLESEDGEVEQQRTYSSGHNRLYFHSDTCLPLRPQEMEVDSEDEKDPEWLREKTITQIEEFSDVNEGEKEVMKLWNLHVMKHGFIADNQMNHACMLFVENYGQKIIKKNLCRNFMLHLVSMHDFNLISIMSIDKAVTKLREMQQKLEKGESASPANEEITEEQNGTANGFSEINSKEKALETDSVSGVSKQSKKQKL
T2 sequence (O75530 2-441 partner limits assumed): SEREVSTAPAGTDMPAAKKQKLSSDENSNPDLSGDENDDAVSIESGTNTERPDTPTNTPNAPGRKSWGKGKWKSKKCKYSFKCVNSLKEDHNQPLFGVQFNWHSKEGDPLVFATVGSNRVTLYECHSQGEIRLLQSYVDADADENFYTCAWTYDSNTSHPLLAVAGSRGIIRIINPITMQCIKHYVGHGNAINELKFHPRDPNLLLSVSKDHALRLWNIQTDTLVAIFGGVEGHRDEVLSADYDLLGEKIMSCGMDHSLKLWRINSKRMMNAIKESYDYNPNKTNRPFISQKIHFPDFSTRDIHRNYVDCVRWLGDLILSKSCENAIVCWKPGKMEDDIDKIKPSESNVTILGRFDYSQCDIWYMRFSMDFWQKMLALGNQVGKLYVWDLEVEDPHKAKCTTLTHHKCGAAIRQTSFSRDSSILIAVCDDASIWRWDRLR
T1 sequence (Q92800 2-747 limits assumed): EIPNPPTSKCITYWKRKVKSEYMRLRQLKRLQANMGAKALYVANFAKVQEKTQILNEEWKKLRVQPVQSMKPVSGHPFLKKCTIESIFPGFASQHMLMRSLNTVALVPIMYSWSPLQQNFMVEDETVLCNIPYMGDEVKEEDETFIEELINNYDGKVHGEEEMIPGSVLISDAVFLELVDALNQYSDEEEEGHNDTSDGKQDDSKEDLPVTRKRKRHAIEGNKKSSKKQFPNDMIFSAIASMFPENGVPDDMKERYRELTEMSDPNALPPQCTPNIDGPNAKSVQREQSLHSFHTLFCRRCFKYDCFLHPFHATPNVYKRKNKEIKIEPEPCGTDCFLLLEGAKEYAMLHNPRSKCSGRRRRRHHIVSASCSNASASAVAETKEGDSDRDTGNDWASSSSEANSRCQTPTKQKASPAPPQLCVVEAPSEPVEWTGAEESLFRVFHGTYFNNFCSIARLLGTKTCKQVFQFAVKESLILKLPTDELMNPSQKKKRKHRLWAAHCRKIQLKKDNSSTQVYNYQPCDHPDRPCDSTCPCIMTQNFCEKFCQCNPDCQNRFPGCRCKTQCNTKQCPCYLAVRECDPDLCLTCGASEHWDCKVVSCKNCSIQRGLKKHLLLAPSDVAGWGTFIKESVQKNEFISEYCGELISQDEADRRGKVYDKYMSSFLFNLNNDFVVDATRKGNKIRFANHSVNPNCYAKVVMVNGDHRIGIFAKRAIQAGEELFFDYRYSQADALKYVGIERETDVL
T1 sequence (Q15022 2-739 partner limits assumed): as the sequence (Q15022 2-739 partner limits assumed) above
T1 sequence (O75530 2-441 partner limits assumed): as the sequence (O75530 2-441 partner limits assumed) above

On to `COc1c(Cl)c2c(c(C)c1C(=O)NCc1c(C)cc(C)[nH]c1=O)O[C@@H](C1CCC(N(C)C)CC1)CO2` (mixture of isomers) [Compound 133], for which the 50% inhibitory concentration (IC50) in experiment [1] came to 584 nM; in experiment [2], 16.6 nM.

Regarding `Cc1cc(C)c(CNC(=O)c2cc(Cl)c3c(c2C)OC(C2CCC(NC4CC(F)C4)CC2)CO3)c(=O)[nH]1` (single isomer, unassigned) [Compound 65], the IC50 in experiment [1] worked out at 641 nM; in experiment [2], 29.7 nM.

For `Cc1cc(C)c(CNC(=O)c2cc(Cl)c3c(c2C)OC(C2CCC(NC4CC(F)(F)C4)CC2)CO3)c(=O)[nH]1` (single isomer, unassigned) [Compound 66], the results for the concentration for half-maximal inhibition (IC50) in experiment [1] and in experiment [2] were 687 nM and 24.4 nM, respectively.

Take `Cc1cc(C)c(CNC(=O)c2cc(Cl)c3c(c2C)OC(C2CCC(NC4CC(F)(F)C4)CC2)CO3)c(=O)[nH]1` (single isomer, unassigned) [Compound 67]: the figures for the IC50 in experiment [1] and in experiment [2] were 367 nM and 47.6 nM, respectively.

For the compound `COC1(C(F)(F)F)CN(C2CCC(C3COc4c(Cl)cc(C(=O)NCc5c(C)cc(C)[nH]c5=O)c(C)c4O3)CC2)C1` (single isomer, unassigned) [Compound 68], the IC50 in experiment [1] is above 10000 nM; in experiment [2], 59.3 nM.

On to `COC1(C(F)(F)F)CN(C2CCC(C3COc4c(Cl)cc(C(=O)NCc5c(C)cc(C)[nH]c5=O)c(C)c4O3)CC2)C1` (single isomer, unassigned) [Compound 69], for which the concentration for half-maximal inhibition (IC50) in experiment [1] came out at 879 nM; in experiment [2], 84.6 nM.

In the case of `Cc1cc(C)c(CNC(=O)c2cc(Cl)c3c(c2C)OC(C2CCC(N4CC(F)C4)CC2)CO3)c(=O)[nH]1` (single isomer, unassigned) [Compound 71], the IC50 turned out to be 564 nM in experiment [1] and 41.8 nM in experiment [2].

As to `Cc1cc(C)c(CNC(=O)c2cc(Cl)c3c(c2C)OC(C2CCN(C)CC2)CO3)c(=O)[nH]1` (stereo not drawn) [Compound 1], the 50% inhibitory concentration (IC50) came out at 1300 nM in experiment [1] and 27.5 nM in experiment [2].

Turning to `[2H]C([2H])([2H])OC1CN([C@H]2CC[C@H]([C@H]3COc4c(Cl)cc(C(=O)NCc5c(SC)cc(C)[nH]c5=O)c(C)c4O3)CC2)C1` [Compound 21], the half-maximal inhibitory concentration (IC50) in experiment [1] was determined as 18.9 nM; in experiment [2], 6.4 nM.

On to `CSc1cc(C)[nH]c(=O)c1CNC(=O)c1cc(Cl)c2c(c1C)O[C@H](C1CCN(CC3CC3)CC1)CO2` [Compound 31], for which the figures for the IC50 in experiment [1] and in experiment [2] were 491 nM and 66.3 nM, respectively.

Turning to `CO[C@H]1CCN([C@H]2CC[C@@H]([C@H]3COc4c(Cl)cc(C(=O)NCc5c(SC)cc(C)[nH]c5=O)c(C)c4O3)CC2)C1` [Compound 39], the half-inhibitory concentration (IC50) in experiment [1] amounted to 7.3 nM; in experiment [2], 4 nM.

`CO[C@@H]1CCN([C@H]2CC[C@@H]([C@H]3COc4c(Cl)cc(C(=O)NCc5c(SC)cc(C)[nH]c5=O)c(C)c4O3)CC2)C1` [Compound 41]: the half-inhibitory concentration (IC50) in experiment [1] worked out at 3.9 nM; in experiment [2], 4.3 nM.

On to `Cc1cc(C)c(CNC(=O)c2cc(Cl)c3c(c2C)O[C@H]([C@H]2CC[C@H](N4CC5COCC5C4)CC2)CO3)c(=O)[nH]1` (stereo partly drawn) [Compound 72], for which the concentration for half-maximal inhibition (IC50) was above 10000 nM in experiment [1] and 1250 nM in experiment [2].

As to `Cc1cc(C)c(CNC(=O)c2cc(Cl)c3c(c2C)O[C@H]([C@H]2CC[C@@H](N4CC5COCC5C4)CC2)CO3)c(=O)[nH]1` (stereo partly drawn) [Compound 74], the half-maximal inhibitory concentration (IC50) in experiment [1] was above 10000 nM; in experiment [2], 998 nM.

For `Cc1cc(C)c(CNC(=O)c2cc(Cl)c3c(c2C)O[C@@H](C2CCN(CC4CC4)CC2)CO3)c(=O)[nH]1` [Compound 90], the figures for the IC50 in experiment [1] and in experiment [2] were 945 nM and 18.6 nM, respectively.

`CON=C1CCC([C@H]2COc3c(Cl)cc(C(=O)NCc4c(C)cc(C)[nH]c4=O)c(C)c3O2)CC1` (stereo partly drawn) [Compound 93]: the results for the concentration for half-maximal inhibition (IC50) in experiment [1] and in experiment [2] were 132 nM and 6 nM, respectively.

Regarding `COc1cc(C)[nH]c(=O)c1CNC(=O)c1cc(Cl)c2c(c1C)O[C@@H]([C@H]1CC[C@@H](N3CC4COCC4C3)CC1)CO2` (stereo partly drawn) [Compound 95], the values for the IC50 in experiment [1] and in experiment [2] were 227 nM and 11.6 nM, respectively.

In the case of `COc1cc(C)[nH]c(=O)c1CNC(=O)c1cc(Cl)c2c(c1C)O[C@@H]([C@H]1CC[C@H](N3CC4COCC4C3)CC1)CO2` (stereo partly drawn) [Compound 96], the 50% inhibitory concentration (IC50) in experiment [1] was determined as 167 nM; in experiment [2], 7 nM.

On to `COCCOC1CN([C@H]2CC[C@H]([C@H]3COc4c(Cl)cc(C(=O)NCc5c(OC)cc(C)[nH]c5=O)c(C)c4O3)CC2)C1` [Compound 102], for which the IC50 was 655 nM in experiment [1] and 2.6 nM in experiment [2].

On to `COCCN(C)[C@H]1CC[C@H]([C@H]2COc3c(Cl)cc(C(=O)NCc4c(OC)cc(C)[nH]c4=O)c(C)c3O2)CC1` [Compound 108], for which the IC50 in experiment [1] was 69.3 nM; in experiment [2] it was 5 nM.

With `COc1cc(C)[nH]c(=O)c1CNC(=O)c1cc(Cl)c2c(c1C)O[C@@H]([C@H]1CC[C@@H](N3CC4(CC4)C3)CC1)CO2` [Compound 111], the concentration for half-maximal inhibition (IC50) in experiment [1] came out at 27.3 nM; in experiment [2] it was 13.4 nM.

`COc1cc(C)[nH]c(=O)c1CNC(=O)c1cc(Cl)c2c(c1C)O[C@@H]([C@H]1CC[C@@H](N3CC4CC4C3)CC1)CO2` (stereo partly drawn) [Compound 113]: the IC50 in experiment [1] is 91.2 nM; in experiment [2], 9.4 nM.

For `COc1cc(C)[nH]c(=O)c1CNC(=O)c1cc(Cl)c2c(c1C)O[C@@H]([C@H]1CC[C@@H](N3CC4C(C3)C4OC)CC1)CO2` (stereo partly drawn) [Compound 115], the results for the IC50 in experiment [1] and in experiment [2] were 74.8 nM and 4.9 nM, respectively.

Consider `Cc1cc(C)c(CNC(=O)c2c(C)c3c(c(Cl)c2F)OC[C@H]([C@H]2CC[C@H](N(C)C)CC2)O3)c(=O)[nH]1` [Compound 132], for which the concentration for half-maximal inhibition (IC50) in experiment [1] stood at 722 nM; in experiment [2] it was 7.3 nM.

For the compound `COc1c(Cl)c2c(c(C)c1C(=O)NCc1c(C)cc(C)[nH]c1=O)O[C@@H]([C@H]1CC[C@@H](N(C)C)CC1)CO2` [Compound 134], the IC50 was 125 nM in experiment [1] and 6.6 nM in experiment [2].

In the case of `COc1c(Cl)c2c(c(C)c1C(=O)NCc1c(C)cc(C)[nH]c1=O)O[C@@H]([C@H]1CC[C@H](N(C)C)CC1)CO2` [Compound 135], the IC50 in experiment [1] is 5600 nM; in experiment [2], 80.1 nM.

As for `COC1C[N+]([O-])([C@H]2CC[C@@H]([C@H]3COc4c(Cl)cc(C(=O)NCc5c([S+](C)[O-])cc(C)n(O)c5=O)c(C)c4O3)CC2)C1` (stereo partly drawn) [Compound 136], the figures for the IC50 in experiment [1] and in experiment [2] were 192 nM and 42.5 nM, respectively.

With `COC1CN([C@H]2CC[C@@H]([C@H]3COc4c(Cl)cc(C(=O)NCc5c([S+](C)[O-])cc(C)[nH]c5=O)c(C)c4O3)CC2)C1` (stereo partly drawn) [Compound 139], the IC50 in experiment [1] was 8490 nM; in experiment [2], 1260 nM.

For `COC1CN([C@H]2CC[C@H]([C@H]3COc4c(Cl)cc(C(=O)NCc5c([S+](C)[O-])cc(C)[nH]c5=O)c(C)c4O3)CC2)C1` (stereo partly drawn) [Compound 140], the 50% inhibitory concentration (IC50) in experiment [1] was found to be 8910 nM; in experiment [2], 897 nM.

`Cc1cc(C)c(CNC(=O)c2cc(Cl)c3c(c2Cl)O[C@H]([C@H]2CC[C@@H](N(C)C)CC2)CO3)c(=O)[nH]1` [Compound 142]: the results for the IC50 in experiment [1] and in experiment [2] were 7610 nM and 1160 nM, respectively.

On to `Cc1cc(C)c(CNC(=O)c2cc(Cl)c3c(c2Cl)O[C@@H]([C@H]2CC[C@H](N(C)C)CC2)CO3)c(=O)[nH]1` [Compound 144], for which the IC50 was determined as 769 nM in experiment [1] and 15.6 nM in experiment [2].

For `Cc1cc(C)c(CNC(=O)c2cc(Cl)c3c(c2Cl)OC[C@@H]([C@H]2CC[C@H](N(C)C)CC2)O3)c(=O)[nH]1` [Compound 148], the values for the IC50 in experiment [1] and in experiment [2] were 2830 nM and 67.1 nM, respectively.

For `COC1CN([C@H]2CC[C@H]([C@H]3COc4c(Cl)cc(C(=O)NCc5c(SC)cc(C)[nH]c5=O)c(Cl)c4O3)CC2)C1` [Compound 150], the half-maximal inhibitory concentration (IC50) in experiment [1] is 22.2 nM; in experiment [2], 11.6 nM.

As to `COC1CN([C@H]2CC[C@H]([C@H]3COc4c(C#N)cc(C(=O)NCc5c(SC)cc(C)[nH]c5=O)c(C)c4O3)CC2)C1` [Compound 154], the IC50 in experiment [1] came to 30 nM; in experiment [2], 4.2 nM.

For `CSc1cc(C)[nH]c(=O)c1CNC(=O)c1cc(C#N)c2c(c1C)O[C@@H]([C@H]1CC[C@H](N3CC(OCCF)C3)CC1)CO2` [Compound 162], the IC50 in experiment [1] worked out at 29.3 nM.

In the case of `[2H]C([2H])([2H])Sc1cc(C)[nH]c(=O)c1CNC(=O)c1cc(Cl)c2c(c1C)O[C@@H](C1CCC(N3CC(OC)C3)CC1)CO2` (stereo partly drawn) [Compound 177], the half-inhibitory concentration (IC50) was found to be 2.3 nM in experiment [1] and 1.5 nM in experiment [2].

`[2H]C([2H])([2H])Sc1cc(C)[nH]c(=O)c1CNC(=O)c1cc(Cl)c2c(c1C)O[C@@H](C1CCC(N3CC(OC)C3)CC1)CO2` (stereo partly drawn) [Compound 178]: the IC50 in experiment [1] was found to be 17.5 nM.
